# Assay results taken from paper PMC10359466, “Identification of a small-molecule inhibitor that selectively blocks DNA-binding by Trypanosoma brucei replication protein A1” (Nature Communications, 2023).
# Where “and” joins values, the source holds several entries; their conditions need not be identical. Identical values can stand only once. Entries after “also recorded” stand apart in the source; their conditions may differ. Like-named read-outs stand apart in the source and are kept apart here.
# How the values were obtained:
# [1] = test system: TbRPA1, γH2A, VSG3 protein levels in T. brucei cells; test: Immunoblotting of TbRPA1, γH2A, VSG3; format: cell-based, Trypanosoma brucei; conditions: 10 µM
# Description: Cells were harvested at indicated time points and suspended in Laemmli buffer (Bio-Rad) at 0.25 million cells per µl. Denatured proteins from whole cells were separated on a 4–20% gradient SDS-PAGE gel (Bio-Rad) and transferred to a nitrocellulose membrane (GE Healthcare). The membranes were probed with polyclonal antibodies against TbRPA1 (a gift from Bibo Li laboratory, ProSci Inc., ID: 21371, dilution factor 1:1,000) or γH2A (generated by ABclonal for this study, antibody ID E16070 (P), dilution factor 1:1,000), or monoclonal mouse antibodies against VSG3 (Antibody and Bioresource Core facility, MSKCC, catalog number cloneVSG224-11D6, lot EQ.11-Pur.-A, dilution factor 1:1,000) or Tubulin (Sigma, catalog number T7451, clone 6-11B-1, lot 0000149704, dilution 1:5000) in 1x PBS with 0.1% Tween 20 and 1% milk (Bio-Rad) at 4 °C overnight. The membranes were then incubated with secondary antibodies conjugated with Horseradish Peroxidase (HRP) (GE Healthcare; Rabbit HRP: catalog number NA934V, lot 17640116; Mouse HRP: catalog number NA931V, lot 17041904, dilution 1:5000) for the detection of corresponding proteins using chemiluminescence (Hyglo ELC solution from Denville Scientific, catalog number E2400; ChemiDoc Imaging System from Bio-Rad).
# [2] = target: TcRPA1 DBD-AB; test: MST inhibition of ssDNA-binding activity, TcRPA1 DBD-AB; design: species or system T. cruzi; conditions: dT32, 30 nM protein
# Description: (§1) Samples were then loaded into MST capillaries.
# (§2) We used one site binding to obtain a dissociation constant (Kd) and standard 4-parameter logistic curve (Sigmoidal curve) analysis to obtain the IC50 value of JC-229. We used GraphPad Prism software.
# [3] = test system: T. brucei TbRPA1 sKO cells; test: AlamarBlue cytotoxicity on TbRPA1 single knock-out (sKO) T. brucei cells
# Description: To determine the viability of TbRPA1-depleted cells, we carried out the AlamarBlue assay (Thermo Fisher, catalog number A50101), an established colorimetric technique that detects metabolically active cells by measuring resorufin converted from resazurin by reducing the environment of live cells[70]. Cells from each time point were incubated with AlamarBlue dye for 4–6 h, and the percentage of live cells was determined[70]. Synergy H1 microplate reader (BioTek) was used with 560/590 nm (excitation/emission) filter settings and relative fluorescence unit (RFU) values were obtained. The percentage of viable cells were calculated from the RFU values.
# [4] = target: T1, HsRPA1 DBD-AB (Homo sapiens, UniProt P27694); test: EMSA inhibition of ssDNA binding, HsRPA1 DBD-AB; conditions: highest concentration 80 µM
# T1 construct: were generated by PCR-amplifying the DBD-AB domain and cloning into a pET28a vector; made in house; host or cells: E. coli BL21
# T1 sequence (P27694 181-427 limits assumed): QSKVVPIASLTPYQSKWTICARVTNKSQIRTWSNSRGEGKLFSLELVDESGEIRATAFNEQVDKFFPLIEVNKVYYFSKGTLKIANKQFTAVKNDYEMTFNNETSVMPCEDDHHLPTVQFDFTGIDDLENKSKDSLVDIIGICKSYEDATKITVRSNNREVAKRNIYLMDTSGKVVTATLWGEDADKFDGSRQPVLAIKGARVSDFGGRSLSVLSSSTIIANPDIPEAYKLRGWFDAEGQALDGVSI
# [5] = target: TbRPA1 DBD-AB S105T; test: MST inhibition of ssDNA-binding activity, TbRPA1 DBD-AB S105T mutant; design: species or system T. brucei; conditions: dT32, 30 nM protein
# Description: as §1, §2
# [6] = test system: T. brucei cells; test: AlamarBlue cell viability / growth inhibition of T. brucei
# Description: Synergy H1 microplate reader (BioTek) was used with 560/590 nm (excitation/emission) filter settings and relative fluorescence unit (RFU) values were obtained. The percentage of viable cells were calculated from the RFU values.
# Trypanosome cells were seeded at 1 × 10^3 cells/ml density in 180 µl in a 96-well culture plate in triplicate. […] DMSO was used as a vehicle control at 0.0075%.
# [7] = target: T2, HsRPA complex (Homo sapiens, UniProt P27694); test: MST inhibition of ssDNA-binding activity, HsRPA complex; conditions: dT32, MST
# T2 construct: made in house; host or cells: E. coli BL21
# T2 sequence (P27694 whole entry): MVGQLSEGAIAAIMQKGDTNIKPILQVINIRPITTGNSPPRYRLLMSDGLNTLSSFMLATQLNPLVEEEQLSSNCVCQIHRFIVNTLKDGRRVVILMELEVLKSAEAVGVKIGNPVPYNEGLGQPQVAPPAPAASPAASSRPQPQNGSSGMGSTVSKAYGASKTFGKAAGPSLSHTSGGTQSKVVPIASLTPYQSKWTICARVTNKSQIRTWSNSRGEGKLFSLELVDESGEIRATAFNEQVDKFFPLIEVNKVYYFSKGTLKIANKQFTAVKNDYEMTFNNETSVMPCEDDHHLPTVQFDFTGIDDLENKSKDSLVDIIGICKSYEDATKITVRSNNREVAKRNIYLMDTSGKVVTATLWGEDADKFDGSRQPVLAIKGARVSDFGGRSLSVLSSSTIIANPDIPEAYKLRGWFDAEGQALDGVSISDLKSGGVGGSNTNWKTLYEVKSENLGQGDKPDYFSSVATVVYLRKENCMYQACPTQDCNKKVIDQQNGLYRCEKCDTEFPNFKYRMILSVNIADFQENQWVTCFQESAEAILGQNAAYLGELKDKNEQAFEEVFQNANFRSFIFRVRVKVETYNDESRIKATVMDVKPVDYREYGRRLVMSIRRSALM
# T2 sequence (P15927 whole entry partner): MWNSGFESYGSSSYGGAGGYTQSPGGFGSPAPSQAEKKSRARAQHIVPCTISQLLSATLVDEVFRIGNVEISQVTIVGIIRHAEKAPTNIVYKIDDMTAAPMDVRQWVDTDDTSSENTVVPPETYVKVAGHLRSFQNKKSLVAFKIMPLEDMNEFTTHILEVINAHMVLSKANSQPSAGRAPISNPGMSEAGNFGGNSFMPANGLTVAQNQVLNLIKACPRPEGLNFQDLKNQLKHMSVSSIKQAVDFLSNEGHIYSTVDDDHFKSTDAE
# T2 sequence (P35244 whole entry partner): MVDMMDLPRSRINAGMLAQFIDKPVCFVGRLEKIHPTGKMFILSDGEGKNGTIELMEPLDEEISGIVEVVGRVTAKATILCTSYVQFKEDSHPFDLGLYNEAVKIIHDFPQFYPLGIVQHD
# Description: as §1, §2
# [8] = target: TbRPA1 DBD-AB (Trypanosoma brucei brucei, UniProt Q384B5); test: EMSA inhibition of ssDNA binding, TbRPA1 DBD-AB; conditions: 0.625-80 µM, 5´IRDye800-dT32
# Sequence of TbRPA1 DBD-AB (Q384B5 entry or part of it): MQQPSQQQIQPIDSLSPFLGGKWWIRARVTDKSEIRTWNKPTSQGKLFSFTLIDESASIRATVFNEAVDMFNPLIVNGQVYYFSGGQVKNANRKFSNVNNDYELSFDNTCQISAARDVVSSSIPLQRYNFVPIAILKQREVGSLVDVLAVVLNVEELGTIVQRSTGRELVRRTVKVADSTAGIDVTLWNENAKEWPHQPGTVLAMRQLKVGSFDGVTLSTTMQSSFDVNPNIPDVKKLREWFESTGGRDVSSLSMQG
# [9] = test system: HEK293; test: AlamarBlue cell viability of HEK293 cells; format: cell-based, human; conditions: for EC50: HEK293, 72 h
# Description: (§3) To determine the inhibitory effect of JC-229 on human cells, HeLa and HEK293 cells were suspended in 180 μl D-MEM with 10% FBS and plated at a density of 2 × 10^4 cells/ml in triplicate. […] Percent viability was plotted using GraphPad Prism software. […] We estimated the EC50 values using the concentration of JC-229 that causes a 50% reduction of cell viability (inhibitor vs. normalized response, variable slope).
# [10] = test system: T. brucei cells; test: Cell-cycle analysis by PI staining and flow cytometry; format: cell-based, Trypanosoma brucei; conditions: 10 µM
# Description: About 10 million cells were collected, fixed with ice-cold 70% ethanol, and incubated with 50 μg/ml PI (Sigma-Aldrich) and 200 μg/ml RNase A (Sigma-Aldrich) in 1x PBS (Corning) at 37 °C for 30 min in the dark. Samples were analyzed by flow cytometry ([…], BD Biosciences) and FlowJo.
# [11] = test system: LmexRPA1 DBD-AB; test: EMSA inhibition of ssDNA binding, LmexRPA1 DBD-AB; design: species or system L. mexicana
# Description: Increasing concentrations of recombinant protein (from 0.05 to 100 nM) were incubated with 2 nM of 5´IRDye800-labeled oligo in binding buffer (20 mM Tris, pH 7.5, 10 mM NaCl, 10 mM MgCl2, 2 mM dithiothreitol (DTT), 10% glycerol, and 0.1 mg/ml BSA) for 15 min at room temperature. About 4 μl of 6x Orange dye (Sigma) was added to the 20 μl reaction, and from that, 8 μl was separated on a non-denaturing polyacrylamide gel in 1x Tris-Borate-EDTA (TBE, Invitrogen) buffer; 4% gel for RPA complex and 8% for DBD-AB, DBD-A, or DBD-B proteins. Gels were pre-run for 1 h at a constant 100 V. Protein–ssDNA complex and unbound ssDNA were separated by running the gel at a constant 80 V at 4 °C in the dark and then visualized using LI-COR Odyssey imaging system and quantified with ImageJ software.
# Samples were separated on a non-denaturing polyacrylamide gel and analyzed as described above in ssDNA-binding assay.
# [12] = test system: TcRPA1 DBD-AB; test: EMSA inhibition of ssDNA binding, TcRPA1 DBD-AB; design: species or system T. cruzi
# [13] = test system: HeLa; test: AlamarBlue cell viability of HeLa cells; format: cell-based, human
# Description: as §3
# [14] = target: TbRPA complex (Trypanosoma brucei brucei, UniProt Q384B5); test: EMSA inhibition of ssDNA binding, TbRPA complex
# Sequence of TbRPA complex (Q38DK0 entry or part of it): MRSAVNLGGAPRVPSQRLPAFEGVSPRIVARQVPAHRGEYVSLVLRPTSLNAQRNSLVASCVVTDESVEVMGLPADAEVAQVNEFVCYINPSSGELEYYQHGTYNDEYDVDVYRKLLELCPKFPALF
# Sequence of TbRPA complex (Q57ZN9 entry or part of it, further chain): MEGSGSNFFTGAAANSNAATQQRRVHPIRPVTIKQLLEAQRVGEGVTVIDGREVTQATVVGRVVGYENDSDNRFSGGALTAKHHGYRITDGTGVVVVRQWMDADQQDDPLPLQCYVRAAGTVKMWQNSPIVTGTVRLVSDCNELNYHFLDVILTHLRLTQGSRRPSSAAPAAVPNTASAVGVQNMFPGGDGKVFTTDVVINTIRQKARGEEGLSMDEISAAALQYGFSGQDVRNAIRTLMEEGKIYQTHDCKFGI
# Sequence of TbRPA complex (Q384B5 entry or part of it): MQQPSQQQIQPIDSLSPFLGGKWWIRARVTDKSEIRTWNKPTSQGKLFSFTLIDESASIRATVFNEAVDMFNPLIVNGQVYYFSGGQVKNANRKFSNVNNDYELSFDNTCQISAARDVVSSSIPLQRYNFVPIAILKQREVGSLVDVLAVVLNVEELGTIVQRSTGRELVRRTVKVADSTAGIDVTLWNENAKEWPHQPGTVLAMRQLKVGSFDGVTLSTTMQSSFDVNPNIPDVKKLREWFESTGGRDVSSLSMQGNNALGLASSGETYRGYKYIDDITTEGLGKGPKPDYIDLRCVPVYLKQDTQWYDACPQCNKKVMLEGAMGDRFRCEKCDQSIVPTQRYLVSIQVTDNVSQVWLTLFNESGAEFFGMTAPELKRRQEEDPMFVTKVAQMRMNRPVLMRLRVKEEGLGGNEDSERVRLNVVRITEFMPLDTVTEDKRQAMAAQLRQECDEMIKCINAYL
# [15] = target: LmexRPA1 DBD-AB; test: MST inhibition of ssDNA-binding activity, LmexRPA1 DBD-AB; design: species or system L. mexicana; conditions: dT32, MST
# Description: as §1, §2
# [16] = target: T1, HsRPA1 DBD-AB; test: MST inhibition of ssDNA-binding activity, HsRPA1 DBD-AB; conditions: dT32, MST
# Description: as §1, §2
structure (smiles),measurement,setting,value
"Cc1ccc(C(=O)Nc2ccc(Cl)c(Cl)c2)cc1S(=O)(=O)Nc1ccc(Cl)c(Cl)c1 [JC-229, N-(3,4-dichlorophenyl)−3-(N-(3,4-dichlorophenyl)sulfamoyl)−4-methylbenzamide]",Levels of VSG3,[1],increased
same,Levels of γH2A,[1],increased
same,TbRPA1 protein levels,[1],did not change
same,"IC50, inhibition of TcRPA1 DBD-AB ssDNA binding",[2],No inhibition; also recorded: did not inhibit
same,EC50,"[3]; Trypanosoma brucei, 72 h, read-out: EC50, single KO (∆/WT), 72 h, [Inhibitor] vs. norm response, variable slope",4.93 µM
same,EC50,"[3]; Trypanosoma brucei, read-out: EC50, single KO (∆/WT), Suppl. Table 5-B, Sigmoidal, 4-PL",4.61 µM
same,EC50,"[3]; read-out: EC50, single KO (∆/WT), 72 h, [Inhibitor] vs. norm response, variable slope",5 µM
same,Inhibition of ssDNA binding of HsDBD-AB (EMSA),[4],did not inhibit
same,"IC50, inhibition of TbRPA1 DBD-AB S105T ssDNA binding",[5],No inhibition; also recorded: did not inhibit
same,Effect on parasite proliferation,"[6]; 50 µM, 3 days, AlamarBlue",abolished parasite proliferation
same,EC50,"[6]; Trypanosoma brucei, 72 h, read-out: EC50 (T. brucei growth inhibition), WT T. brucei, 72 h, AlamarBlue, standard 4-PL curve",6.6 µM
same,EC50,"[6]; Trypanosoma brucei, 72 h, read-out: EC50 (T. brucei), 0.5-50 μM, 72 h, AlamarBlue, inhibitor vs. normalized response, variable slope (Fig. 3f)",6.54 µM
same,EC50,"[6]; Trypanosoma brucei, read-out: EC50, WT (WT/WT), Fig. 8d WT strain, 72 h, [Inhibitor] vs. norm response, variable slope",5.68 µM
same,EC50,"[6]; Trypanosoma brucei, read-out: EC50, WT (WT/WT), Suppl. Table 5-B, Sigmoidal, 4-PL",5.65 µM
same,EC50,"[6]; read-out: EC50 (T. brucei growth inhibition), WT T. brucei, 72 h, AlamarBlue, standard 4-PL curve",6.58 µM and 6 µM
same,EC50,"[6]; read-out: EC50 (T. brucei), 0.5-50 μM, 72 h, AlamarBlue, inhibitor vs. normalized response, variable slope (Fig. 3f)",6.5 µM
same,EC50,"[6]; read-out: EC50, WT (WT/WT), Fig. 8d WT strain, 72 h, [Inhibitor] vs. norm response, variable slope",5.7 µM
same,"IC50, inhibition of HsRPA complex ssDNA binding",[7],No inhibition; also recorded: no inhibitory effect
same,Inhibition of ssDNA binding of TbDBD-AB (EMSA),[8],inhibited by JC-229 in a dose-dependent manner
same,Inhibition of HEK293 at EC50 to T. brucei,[9]; 6.5 µM,barely inhibited
same,EC50,"[9]; Homo sapiens, 0.5-50 μM, 72 h, AlamarBlue, inhibitor vs. normalized response, variable slope (Fig. 3f)",18 µM
same,EC50,"[9]; Homo sapiens, 72 h, Sigmoidal, 4-PL (Suppl. Table 1-B)",10.3 µM
same,inhibition at 50 µM,"[9]; Homo sapiens, HEK293, 50 µM, 72 h, read-out: Inhibition of HEK293 at maximum concentration",< 100%
same,Sub-G1 population,[10]; 32 h,~45%
same,Cells that lost the bulk of their DNA,[10]; 48 h,~97%
same,Inhibition of LmexRPA1 DBD-AB ssDNA binding (EMSA),[11],did not inhibit
same,Inhibition of TcRPA1 DBD-AB ssDNA binding (EMSA),[12],did not inhibit
same,Inhibition of HeLa at EC50 to T. brucei,[13]; 6.5 µM,barely inhibited
same,EC50,"[13]; Homo sapiens, HeLa, 72 h, 0.5-50 μM, 72 h, AlamarBlue, inhibitor vs. normalized response, variable slope (Fig. 3f)",32 µM
same,EC50,"[13]; Homo sapiens, HeLa, 72 h, Sigmoidal, 4-PL (Suppl. Table 1-B)",13.2 µM
same,inhibition at 50 µM,"[13]; Homo sapiens, HeLa, 50 µM, 72 h, read-out: Inhibition of HeLa at maximum concentration",< 100%
same,Inhibition of TbRPA complex binding to ssDNA (EMSA),[14],inhibited
same,"IC50, inhibition of LmexRPA1 DBD-AB ssDNA binding",[15],No inhibition; also recorded: did not inhibit
same,"IC50, inhibition of HsRPA1 DBD-AB ssDNA binding",[16],No inhibition; also recorded: no inhibitory effect
